Experimental findings from PubChem BioAssay AID180 (DTP/NCI, 2004) are described below.

This experiment deals with BDF1 mice, Adenocarcinoma 755 s.c., tumor weight T/C. The experiment can be described thus: NCI In Vivo Anticancer Drug Screen. Data for tumor model Adenocarcinoma 755 (subcutaneous) in B6D2F1 (BDF1) mice. Conditions: endpoint: mean tumor weight, schedule: Q01DX011 (ip), higher = larger tumour. The essentials: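 Values express treated (T) relative to vehicle-dosed control (C) animals, based on survival or tumour size measured after compound treatment of mice bearing a transplanted tumour.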

Where [1] appears, read: dose: 200.0 mg/kg/injection, vehicle: carboxymethylcellulose (CMC).
Where [2] appears, read: dose: 300.0 mg/kg/injection, vehicle: carboxymethylcellulose (CMC).
Where [3] appears, read: dose: 12.5 mg/kg/injection, vehicle: carboxymethylcellulose (CMC).
[4] abbreviates: dose: 50.0 mg/kg/injection, vehicle: carboxymethylcellulose (CMC).

Where “and” joins values, the source holds several entries; their conditions need not be identical. Identical values can stand only once.

For orientation: T/C means the ratio of treated to control. For `Cc1cc2nc3c(=O)[nH]c(=O)nc-3n(CC(O)C(O)C(O)C(O)CO)c2cc1C` (centres undefined), the T/C is, setting by setting: (dose: 12.0 mg/kg/injection, vehicle: carboxymethylcellulose (CMC)) 96 % of control and 111 % of control; (dose: 14.13 mg/kg/injection, vehicle: carboxymethylcellulose (CMC)) 91 % of control; (dose: 19.0 mg/kg/injection, vehicle: carboxymethylcellulose (CMC)) 90 % of control and 76 % of control; (dose: 26.25 mg/kg/injection, vehicle: carboxymethylcellulose (CMC)) 79 % of control; (dose: 28.25 mg/kg/injection, vehicle: carboxymethylcellulose (CMC)) 122 % of control; (dose: 52.5 mg/kg/injection, vehicle: carboxymethylcellulose (CMC)) 95 % of control. Further, the T/C runs as follows: (dose: 56.5 mg/kg/injection, vehicle: carboxymethylcellulose (CMC)) 60 % of control; (dose: 62.5 mg/kg/injection, vehicle: methylcellulose (MC)) 94 % of control; (dose: 105.0 mg/kg/injection, vehicle: carboxymethylcellulose (CMC)) 116 % of control; (dose: 113.0 mg/kg/injection, vehicle: carboxymethylcellulose (CMC)) 62 % of control; (dose: 125.0 mg/kg/injection, vehicle: methylcellulose (MC)) 27 % of control; (dose: 210.0 mg/kg/injection, vehicle: carboxymethylcellulose (CMC)) 101 % of control.

`O=C(Nc1ccc([N+](=O)[O-])cc1)Nc1ccc([N+](=O)[O-])cc1` (tested in a mixture with another compound): the T/C is, setting by setting: (dose: 175.0 mg/kg/injection, vehicle: methylcellulose (MC)) 57 % of control and 72 % of control; (dose: 500.0 mg/kg/injection, vehicle: methylcellulose (MC)) 27 % of control and 45 % of control.

For `CCC(C)Sc1nc(N)nc2c1ncn2C1OC(CO)C(O)C1O` (centres undefined), the T/C is 2 % of control under setting [1] and 2 % of control under setting [2].

For `O=C(O)Cc1ccc(C2CCCCC2)cc1`, the T/C runs as follows: (dose: 37.5 mg/kg/injection, vehicle: carboxymethylcellulose (CMC)) 164 % of control; (dose: 75.0 mg/kg/injection, vehicle: carboxymethylcellulose (CMC)) 81 % of control; (dose: 150.0 mg/kg/injection, vehicle: carboxymethylcellulose (CMC)) 120 % of control; under setting [2], 53 % of control.

As for `CCCn1cnc2c(SCCc3ccccc3)nc(N)nc21`, the T/C is, setting by setting: (dose: 50.0 mg/kg/injection, vehicle: methylcellulose (MC)) 47 % of control; (dose: 100.0 mg/kg/injection, vehicle: methylcellulose (MC)) 15 % of control; (dose: 200.0 mg/kg/injection, vehicle: methylcellulose (MC)) 18 % of control.

In the case of `CCOC(=O)n1cnc2ncnc(SC)c21`, the T/C (dose: 5.0 mg/kg/injection, vehicle: carboxymethylcellulose (CMC)) was 59 % of control; the T/C (dose: 10.0 mg/kg/injection, vehicle: carboxymethylcellulose (CMC)) is 80 % of control; the T/C under setting [3] is 48 % of control; the T/C (dose: 25.0 mg/kg/injection, vehicle: carboxymethylcellulose (CMC)) is 15 % of control; the T/C under setting [4] is 7 % of control; the T/C (dose: 100.0 mg/kg/injection, vehicle: carboxymethylcellulose (CMC)) is 5 % of control. In addition, under setting [1], the T/C is 5 % of control.

On to `CSc1nc(N)c(NC=O)c(=O)n1C`, for which the T/C reads like this: (dose: 25.0 mg/kg/injection, vehicle: saline) 118 % of control; (dose: 75.0 mg/kg/injection, vehicle: saline) 66 % of control.

In the case of `c1nc(N2CC2)c2ncn(C3CCCCC3)c2n1`, the T/C runs as follows: under setting [3], 36 % of control; under setting [4], 94 % of control.

Consider `CCOCCNS(=O)(=O)c1ncnc2nc[nH]c12`, for which the T/C reads like this: (dose: 11.2 mg/kg/injection, vehicle: carboxymethylcellulose (CMC)) 53 % of control; (dose: 22.5 mg/kg/injection, vehicle: carboxymethylcellulose (CMC)) 9 % of control; (dose: 30.0 mg/kg/injection, vehicle: carboxymethylcellulose (CMC)) 2 % of control; (dose: 45.0 mg/kg/injection, vehicle: carboxymethylcellulose (CMC)) 3 % of control; (dose: 60.0 mg/kg/injection, vehicle: carboxymethylcellulose (CMC)) 1 % of control.
